The source of these data is US20240271096A1, “EFFICIENT DIFFERENTIATION OF SECOND HEART FIELD CARDIAC PROGENITOR CELLS AND RIGHT VENTRICLE CARDIOMYOCYTES FROM HUMAN PLURIPOTENT STEM CELLS” (Wisconsin Alumni Research Foundation, priority 2023, published 2024).

The test system of this test is HES3-TBX5-TdTomato^+/W/NKX2-5^eGFP/W reporter hESC line. The test can be described thus: NKX2-5-eGFP and TBX5-tdTomato reporter expression during GiWi cardiac differentiation (fluorescence microscopy). It is filed as cell-based, human. An excerpt:
Human iPSCs (hiPSCs) were established from a healthy donor (FIG. 1), 201B7 hiPSCs (RIKEN BRC, Tsukuba, Japan), and HES3-TBX5-TdTomato^+/W/NKX2-5^eGFP/Wreporter hESCs that were a kind gift from Dr. Reza Ardehali, UCLA Geffen School of Medicine (Pezhouman et al., 2022, Cardiovasc Res. 118(3):828-43), were used. HiPSCs were maintained on iMatrix-511 (Matrixome, Osaka, Japan)-coated 6-well plates (Corning, Glendale, Arizona, United States) in StemFit AK02N (Ajinomoto, Tokyo, Japan) and passaged every 7 days.
HESCs were maintained on Matrigel Growth Factor Reduced Basement Membrane Matrix (Corning)-coated 6-well plates (Corning) in StemFlex Medium (Thermo Fisher Scientific, Waltham, MA, United States) and passaged every 3-4 days. StemPro Accutase Cell Dissociation Reagent (Thermo Fisher Scientific) was used for dissociation. 10 μmol/L Y27632 (Tocris, Bristol, United Kingdom) was used for improvement of cell survival for 24 hours after seeding. Mycoplasma tests were performed for all the cell culture in this study.
For LV-cardiomyocyte differentiation, cardiac differentiation was performed according to the protocol published by (Lian et al., 2012, Proc Natl Acad Sci USA 109:E1848-57). Cells were dissociated with StemPro Accutase Cell Dissociation Reagent at 37° C. for 5 minutes. HESCs were seeded on Matrigel-coated 24-well plates (Corning) in StemFlex Medium supplemented with 10 μmol/L Y-27632. HiPSCs were seeded on iMatrix-511-coated 12-well plates (Corning) in StemFit AK02N supplemented with 10 μmol/L Y-27632 at seeding densities of 1×10^5 cells/cm^2 for hESCs and 1.25-2.5×10^4 cells/cm^2 for hiPSCs. Cells were cultured for 4 days until the start of differentiation (day 0). On day 0, the medium was changed to RPMI 1640 Medium (Thermo Fisher Scientific) supplemented with B-27 Supplement minus insulin (Thermo Fisher Scientific) (RPMI/B27-insulin) or B-27 Supplement with insulin (Thermo Fisher Scientific), and 12 μmol/L CHIR 99021 (SelleckChem, Houston, TX, United States), and the cells incubated in this medium for 24 h (day 1). On day 1, the medium was changed to RPMI/B27-insulin. To enhance cardiac differentiation, 50 μmol/L 2-O-α-D-glucopyranosyl-L-ascorbic acid (Tokyo Chemical Industry, Tokyo, Japan) was added on day 1 only for hiPSCs (Burridge et al., 2014 Nat Methods, 11:855-860). On day 3, the medium was changed to RPMI/B27-insulin supplemented with 5 μmol/L IWP2 (SelleckChem) and on day 5, the medium was changed to 1 ml RPMI/B27-insulin. From day 7, the cells were cultured with RPMI/B27-insulin, and the cells were fed every other day. On day 12, the cells were washed with PBS (Thermo Fisher Scientific) and cultured with DMEM or RPMI, no glucose supplemented with 8 mmol/L L-(+)-Lactic acid (Merck) (Tohyama et al., 2013 Cell Stem Cell, 12:127-37). The medium was changed every other day until day 17. After day 17, the cells were cultured with RPMI/B27 and fed every 2 to 3 days. For long-term culture, the cells were dissociated with TrypLE™ Select Enzyme (10×) (Thermo Fisher Scientific) at 37° C. for 15-20 minutes and seeded on Matrigel- or iMatrix-511-coated plates. For RV-cardiomyocyte induction, Dorsomorphin 2HCl (SelleckChem), dorsomorphin homologue 1 (DMH1) (SelleckChem), or 3 μg/L insulin were used from day 0 to day 1. For FIG. 15A and FIG. 15B, dorsomorphin (DM) or 3 μg/L insulin were added on day 0 (for 24 hours), 1, 3, or 5 (for 48 hours).

The mark [1] stands for this setting: 3 μg/mL insulin on day 0, read day 13.
Where [2] appears, read: B-27 supplement containing insulin on differentiation day 0, read day 7 (cardiac progenitor stage).
The mark [3] stands for this setting: B-27 supplement containing insulin on differentiation day 0, read day 14 (cardiomyocyte stage).

On to insulin, for which, under setting [1], the Nkx2.5-eGFP expression result was “strong” and the TBX5-tdTomato expression result is recorded as “without TBX5-tdTomato expression”. Besides, for the setting “10 μg/mL insulin on day 0, read day 13”, the “eGFP and TBX5-tdTomato expression” value is on record as “very low”. In addition, where the note is “0.1, 0.3, 1, and 3 μg/mL insulin on day 0, read day 13”, the “TBX5-tdTomato expression, dose dependence” value is listed as “decreased with increasing doses”. Moreover, under setting [2], the NKX2-5-eGFP expression result was “low” and the TBX5-tdTomato expression entry is “low”. Further, under setting [3], the NKX2-5-eGFP expression entry is “high” and the TBX5-tdTomato expression entry was “low”.
